# Experimental data reported in a melting point compilation (Tetko et al.).
# Conditions: a range is the spread between reports
row,melting point [°C],Compound
1,101 to 102,Oc1ccc(O)c(-c2ccccc2)c1
2,65 to 66,N#Cc1ccc2ccccc2c1
3,33 to 35,CCCCCCCCCCCCCCCCCC(=O)OCC
4,40 to 41,COc1ccc(C(C)=O)c(OC)c1
5,-13 to -12.3,Clc1ccccc1Br
6,257 to 258,NS(=O)(=O)c1cc(C(=O)O)ccc1Cl
7,38 to 38.5,COc1ccc(C(C)=O)cc1
8,-30 to -29.8,Cc1c(F)c(F)c(F)c(F)c1F
9,28 to 29,NCCCNCCCCNCCCN
10,-86.8 to -86,CC(C)OC(C)C
11,-8 to -7,CCCCCCCCCCCCS
12,-118 to -117,CC(C)Cl
13,64 to 66.1,CCCCCCCCCCCCCCCCCCCCO
14,80 to 84,O=C(O)Cc1ccc(C(F)(F)F)cc1
15,193 to 197,O=C(O)C(S)C(S)C(=O)O (stereo not drawn)
16,64 to 65,O=C(O)CSc1ccccc1
17,59 to 61.5,Cc1ccc(CO)cc1
18,10 to 13.7,Oc1cccc(F)c1
19,79 to 80,NNC(=O)c1ccco1

row,melting point [°C],Compound
1,-103 to -102,CCCC(C)(C)O
2,92 to 93,Cc1ccc(CC(=O)O)cc1
3,-120,CC1=CCCCC1
4,37.5 to 38,CC1(C(=O)O)CCCCC1
5,31.5 to 32,O=S1(=O)CCCO1
6,208,O=[N+]([O-])c1ccc2nc[nH]c2c1
7,7 to 8,CCOC(=O)c1ccc(OC)cc1
8,19 to 19.5,COC(=O)CCC(=O)OC
9,61 to 62,CC(C)=NO
10,93.5 to 95,O=Cc1cc2c(cc1[N+](=O)[O-])OCO2
11,92 to 94,COc1cccc(C(=O)NN)c1
12,54.3 to 55,CC(C)(C)c1ccc(O)c(O)c1
13,29 to 31,COc1ccccc1-c1ccccc1
14,0.7 to 1,Clc1ccccc1I
15,90 to 91,c1ccc(-c2cccc(-c3ccccn3)n2)nc1
16,83 to 84,O=C1c2ccccc2-c2ccccc21
17,242 to 245,c1ccc(-c2cnc(-c3ccc(-c4ncc(-c5ccccc5)o4)cc3)o2)cc1
18,163 to 164,O=C(Nc1ccccc1)c1ccccc1
19,146 to 147,O=C(O)C(c1ccccc1)c1ccccc1

row,melting point [°C],Compound
1,87 to 89,COc1ccccc1OC(=O)Oc1ccccc1OC
2,-42 to -41.5,CC(C)CC(=O)CC(C)C
3,28 to 29,CCOC(=O)C(C(=O)OCC)C(=O)OCC
4,108 to 109,c1ccc2nc3ccccc3cc2c1
5,-72 to -71.9,Clc1cccs1
6,114 to 118,CC1CNC(C)CN1 (stereo not drawn)
7,29 to 32,Nc1ccccc1Br
8,103 to 106,CCCCC(N)=O
9,106 to 107,c1ccc2c(c1)CCc1ccccc1N2
10,54 to 56.5,Clc1cncc(Cl)n1
11,65 to 66,Clc1cncc(Cl)c1
12,-16 to -15,CCCCCCCCO
13,7.5 to 8,CC(=O)c1cccc(Br)c1
14,32 to 35,O=C(Cc1ccccc1)Cc1ccccc1
15,72 to 73.5,CCS(=O)(=O)CC
16,31 to 33.5,Cc1cccnc1N
17,51.5 to 52,Cc1ccc(O)c(C(C)(C)C)c1
18,-20 to -18,CCOC(=O)CCCCC(=O)OCC

row,Compound,melting point [°C]
1,C=Cc1ccc(F)cc1,-36 to -34.5
2,COP(N)(=O)SC (stereo not drawn),45 to 46
3,c1ccc(-c2ccccc2)cc1,69 to 71
4,N#Cc1ccc(C=O)cc1,100 to 102
5,Clc1nc(Cl)c(Cl)c(Cl)c1Cl,125 to 126
6,CN(C)c1ccc(Cc2ccc(N(C)C)cc2)cc1,87 to 91.5
7,OCC(O)C1OC2OC(C(Cl)(Cl)Cl)OC2C1O (stereo not drawn),183 to 187
8,C=CCN,-88.2 to -88
9,Nc1ccc(Cl)cc1,70 to 72.5
10,c1ccc2c(c1)ccc1cccnc12,50 to 52
11,CCOc1ccc(N)cc1,2.4 to 4
12,O=[N+]([O-])c1cccc(CBr)c1,58 to 59.3
